In ChEMBL document CHEMBL1201862, “PubChem BioAssay data set” (2004):
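Results reflect a 48-hour exposure of cells in 96-well plates to compound at five concentrations. GI50: concentration for 50% inhibition of growth.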 Active and inactive are the calls of the source. No stated cut-off is given here; in the data, active = GI50 up to about 1.1 µM and inactive = higher.

Columns and labels:
Experiment in all cases: NCI-60 cell line screen, 48 h
NCI-H23 = system: NCI-H23
TK-10 = system: TK-10
RPMI-8226 = system: RPMI-8226
SK-MEL-2 = system: SK-MEL-2
OVCAR-5 = system: OVCAR-5
SF-539 = system: SF-539
MOLT-4 = system: MOLT-4
RXF 393 = system: RXF 393
NCI-H460 = system: NCI-H460
SK-OV-3 = system: SK-OV-3
HOP-92 = system: HOP-92
COLO 205 = system: COLO 205
SK-MEL-5 = system: SK-MEL-5
K562 = system: K562
KM12 = system: KM12
CAKI-1 = system: CAKI-1
HCC 2998 = system: HCC 2998
786-0 = system: 786-0

| Structure (SMILES) | GI50 (NCI-H23) | GI50 (TK-10) | GI50 (RPMI-8226) | GI50 (SK-MEL-2) | GI50 (OVCAR-5) | GI50 (SF-539) | GI50 (MOLT-4) | GI50 (RXF 393) | GI50 (NCI-H460) | GI50 (SK-OV-3) | GI50 (HOP-92) | GI50 (COLO 205) | GI50 (SK-MEL-5) | GI50 (K562) | GI50 (KM12) | GI50 (CAKI-1) | GI50 (HCC 2998) | GI50 (786-0) |
| --- | --- | --- | --- | --- | --- | --- | --- | --- | --- | --- | --- | --- | --- | --- | --- | --- | --- | --- |
| OC(c1ccccc1)C1CC2C=CC1C2 (stereo not given) | > 100 µM (inactive) | > 100 µM (inactive) | > 100 µM (inactive) | > 100 µM (inactive) | > 100 µM (inactive) | > 100 µM (inactive) | > 100 µM (inactive) | > 100 µM (inactive) | > 100 µM (inactive) | > 100 µM (inactive) | > 100 µM (inactive) | > 100 µM (inactive) | > 100 µM (inactive) | > 100 µM (inactive) | > 100 µM (inactive) | > 100 µM (inactive) | – | – |
| COC(=O)C1[C@H](c2ccc3c(c2)OCO3)OC(=O)[C@]1(C(=O)OC)C(=O)c1ccc(OC)c(OC)c1 (stereo not given in full) | 29.3 µM (inactive) | > 100 µM (inactive) | 46.2 µM (inactive) | 23.4 µM (inactive) | 56.8 µM (inactive) | > 10 µM (inactive) | 20.5 µM (inactive) | – | 38.7 µM (inactive) | > 100 µM (inactive) | 44.4 µM (inactive) | 42.7 µM (inactive) | 56.2 µM (inactive) | 36 µM (inactive) | 41.3 µM (inactive) | > 100 µM (inactive) | 34.7 µM (inactive) | > 100 µM (inactive) |
| CN1C(=O)CCC1(O)C1C=CC=CC1 (stereo not given) | > 100 µM (inactive) | > 100 µM (inactive) | > 100 µM (inactive) | – | > 100 µM (inactive) | > 100 µM (inactive) | > 100 µM (inactive) | > 100 µM (inactive) | > 100 µM (inactive) | > 100 µM (inactive) | – | > 100 µM (inactive) | > 100 µM (inactive) | > 100 µM (inactive) | > 100 µM (inactive) | > 100 µM (inactive) | > 100 µM (inactive) | > 100 µM (inactive) |
| OC12c3ccccc3C1CCCCCCCCCC21OCCCO1 (stereo not given) | > 100 µM (inactive) | > 100 µM (inactive) | > 100 µM (inactive) | – | > 100 µM (inactive) | > 100 µM (inactive) | – | – | – | > 100 µM (inactive) | – | > 100 µM (inactive) | > 100 µM (inactive) | 5.09 µM (inactive) | > 100 µM (inactive) | – | > 100 µM (inactive) | – |
| CC(=O)Nc1ccc(-c2nnc(SCC(=O)Nc3cccc([N+](=O)[O-])c3)o2)cc1 | 5.13 µM (inactive) | 23.6 µM (inactive) | 20.7 µM (inactive) | 18.3 µM (inactive) | 23.9 µM (inactive) | 15.8 µM (inactive) | 4.39 µM (inactive) | 12.2 µM (inactive) | 14.5 µM (inactive) | 11.1 µM (inactive) | 17.1 µM (inactive) | 19 µM (inactive) | 14 µM (inactive) | 10.3 µM (inactive) | 17.3 µM (inactive) | 13.7 µM (inactive) | – | 17.6 µM (inactive) |
| CC(C)C1CC(O)O[C@@H]([C@@H](C)[C@H]2CC(=O)[C@@H]3[C@@H]4[C@@H](O)[C@H](O)[C@H]5[C@@H](O)[C@H](O)CC[C@]5(C)[C@H]4CC[C@]23C)C1 (stereo not given in full) | 36 µM (inactive) | 38.3 µM (inactive) | – | 53.6 µM (inactive) | – | > 100 µM (inactive) | > 100 µM (inactive) | 13.3 µM (inactive) | > 100 µM (inactive) | 34.5 µM (inactive) | 22.2 µM (inactive) | > 100 µM (inactive) | 52.2 µM (inactive) | > 100 µM (inactive) | 28.6 µM (inactive) | – | > 100 µM (inactive) | 48 µM (inactive) |
| Cc1nc(N)nc(N)c1CCCc1ccccc1 | 10.3 µM (inactive) | > 100 µM (inactive) | 33.3 µM (inactive) | 7.98 µM (inactive) | 15.9 µM (inactive) | 13.9 µM (inactive) | 4.07 µM (inactive) | – | 3.47 µM (inactive) | 57.5 µM (inactive) | 11.6 µM (inactive) | 22.8 µM (inactive) | 4.94 µM (inactive) | 0.552 µM (active) | 28.6 µM (inactive) | 9.25 µM (inactive) | 12.5 µM (inactive) | 3.66 µM (inactive) |
| COc1cc(CNc2ccc(C(C)C)cc2)cc(OC)c1OC | 20.1 µM (inactive) | 47.4 µM (inactive) | 14.4 µM (inactive) | 13 µM (inactive) | 24.8 µM (inactive) | 20.3 µM (inactive) | 22.4 µM (inactive) | 0.693 µM (active) | 13.4 µM (inactive) | 17.6 µM (inactive) | 20.3 µM (inactive) | – | 14.7 µM (inactive) | 8.57 µM (inactive) | 18.5 µM (inactive) | – | – | 15.4 µM (inactive) |
| O=[N+]([O-])c1ccccc1S(=O)(=O)c1ccccc1 | 89.7 µM (inactive) | > 100 µM (inactive) | > 100 µM (inactive) | > 100 µM (inactive) | > 100 µM (inactive) | > 100 µM (inactive) | > 100 µM (inactive) | 77.8 µM (inactive) | > 100 µM (inactive) | > 100 µM (inactive) | 80.7 µM (inactive) | > 100 µM (inactive) | 81.7 µM (inactive) | > 100 µM (inactive) | > 100 µM (inactive) | – | > 100 µM (inactive) | – |
| Cc1cc(C)c2c(c1)CSCc1cc(C)cc(C)c1-2 | 36.9 µM (inactive) | > 100 µM (inactive) | 22.9 µM (inactive) | 21.3 µM (inactive) | 29.9 µM (inactive) | – | 21.1 µM (inactive) | 39.4 µM (inactive) | 24.2 µM (inactive) | 88.9 µM (inactive) | – | 26.5 µM (inactive) | 21.6 µM (inactive) | 32.8 µM (inactive) | 42.6 µM (inactive) | 26.2 µM (inactive) | 35.2 µM (inactive) | 32.5 µM (inactive) |
| OC(CCNC12CC3CC(CC(C3)C1)C2)c1ccccc1 (stereo not given) | > 100 µM (inactive) | > 100 µM (inactive) | – | > 100 µM (inactive) | > 100 µM (inactive) | > 100 µM (inactive) | > 100 µM (inactive) | > 100 µM (inactive) | > 100 µM (inactive) | > 100 µM (inactive) | 78.3 µM (inactive) | 51.8 µM (inactive) | 43.7 µM (inactive) | – | 88.9 µM (inactive) | > 100 µM (inactive) | 68.7 µM (inactive) | > 100 µM (inactive) |
| CCN(CC)CCC(=O)c1ccccc1 | 19.1 µM (inactive) | 21.3 µM (inactive) | 2.85 µM (inactive) | > 100 µM (inactive) | 21.5 µM (inactive) | 24.8 µM (inactive) | 19.2 µM (inactive) | 20.4 µM (inactive) | 30.8 µM (inactive) | – | 13.1 µM (inactive) | > 10 µM (inactive) | 91 µM (inactive) | 7.45 µM (inactive) | 43.4 µM (inactive) | – | 56 µM (inactive) | – |
| O=S1(=O)OCCOS(=O)(=O)C1Br | > 100 µM (inactive) | > 100 µM (inactive) | > 100 µM (inactive) | > 100 µM (inactive) | – | > 100 µM (inactive) | > 100 µM (inactive) | – | – | > 100 µM (inactive) | > 100 µM (inactive) | > 100 µM (inactive) | > 100 µM (inactive) | > 100 µM (inactive) | > 100 µM (inactive) | > 100 µM (inactive) | > 100 µM (inactive) | > 100 µM (inactive) |
| Cc1cc2c(cc1C)[n+]([O-])c(C(=O)/C=C/c1ccccc1Cl)c(C)[n+]2[O-] | 19.3 µM (inactive) | 25.4 µM (inactive) | 45 µM (inactive) | 27.5 µM (inactive) | 34.4 µM (inactive) | 19.9 µM (inactive) | 39.5 µM (inactive) | – | 26.2 µM (inactive) | 36 µM (inactive) | – | 20.7 µM (inactive) | 24.4 µM (inactive) | 37.9 µM (inactive) | 31.8 µM (inactive) | 21.1 µM (inactive) | 17.1 µM (inactive) | 16 µM (inactive) |
| O=C1CC2CCCCC2=C1O (stereo not given) | > 100 µM (inactive) | > 100 µM (inactive) | > 100 µM (inactive) | > 100 µM (inactive) | > 100 µM (inactive) | > 100 µM (inactive) | > 100 µM (inactive) | > 100 µM (inactive) | > 100 µM (inactive) | > 100 µM (inactive) | – | > 100 µM (inactive) | > 100 µM (inactive) | > 100 µM (inactive) | > 100 µM (inactive) | > 100 µM (inactive) | > 100 µM (inactive) | > 100 µM (inactive) |
| C#CC[C@]12CC(=O)CC[C@H]1CC1(C2)OCCO1 | – | > 100 µM (inactive) | > 100 µM (inactive) | > 100 µM (inactive) | – | > 100 µM (inactive) | > 100 µM (inactive) | > 100 µM (inactive) | > 100 µM (inactive) | > 100 µM (inactive) | – | > 100 µM (inactive) | > 100 µM (inactive) | > 100 µM (inactive) | > 100 µM (inactive) | > 100 µM (inactive) | > 100 µM (inactive) | > 100 µM (inactive) |
| COc1cc2c(cc1OC)C(N(C)C)C(c1ccccc1)=C2Cl (stereo not given) | 16.9 µM (inactive) | 37.5 µM (inactive) | 18.2 µM (inactive) | 18.7 µM (inactive) | 34 µM (inactive) | 20.5 µM (inactive) | 12.5 µM (inactive) | 15.5 µM (inactive) | 19 µM (inactive) | 22 µM (inactive) | 17.9 µM (inactive) | 17.9 µM (inactive) | – | 27.9 µM (inactive) | 23.2 µM (inactive) | – | – | 25.3 µM (inactive) |
| N=C(N)SCCc1cn2ccccc2n1 | > 100 µM (inactive) | > 100 µM (inactive) | > 100 µM (inactive) | > 100 µM (inactive) | > 100 µM (inactive) | > 100 µM (inactive) | > 100 µM (inactive) | – | > 100 µM (inactive) | – | – | > 100 µM (inactive) | 6.92 µM (inactive) | > 100 µM (inactive) | > 100 µM (inactive) | > 100 µM (inactive) | > 100 µM (inactive) | > 100 µM (inactive) |
